From article PMC12714101, “CD160-Derived Peptide as a Bidirectional Inhibitor Toward Immune Checkpoints BTLA/HVEM and HVEM/LIGHT” (Journal of Medicinal Chemistry, 2025)
“And” between values parts separate entries of the source, which are not always exact repeats. Equal values may be shown once. Where a SMILES comes first, the peptide text is derived from it.

Experiments:
HVEM/LIGHT interaction = assay: Cellular reporter assay, HVEM reporter cells (JE6.1-NF-κB::eGFP) stimulated with TCS LIGHT; assay type: cell-based, human; settings: 24 h coculture, three experiments
Method: These findings prompted us to investigate whether the peptide is also capable of inhibiting the binding of HVEM to its ligand–the LIGHT protein. Accordingly, ELISA and cell-based assays were conducted under the same conditions as those used for the BTLA/HVEM complex, with the exception that LIGHT was used instead of BTLA.
(§1) Cellular studies were performed in the same procedure as we described previously for gD- and BTLA-derived peptides. , The peptides were dissolved in the medium, and their final concentrations in wells were 150, 50, and 16,7 μM. Briefly, reporter cells expressing HVEM (JE6.1-NF-κB::eGFP) (5 × 10^4 cells/well) were preincubated with peptides for 30 min in a 96-well flat-bottom plate. Subsequently, the second cell line expressing BTLA (TCS BTLA) or LIGHT (TCS LIGHT) (2 × 10^4 cells/well) was added and cocultured for 24 h at 37 °C in an atmosphere of 5% CO2. Next, an APC-conjugated mCD45.2 antibody to exclude TCS from the reporter cells was added. The expression of the reporter gene (eGFP) was measured via flow cytometry using a CytoFLEX flow cytometer (Beckman Coulter Inc., Brea, CA, USA), and the results were analyzed using FlowJo v10.10 (FlowJo LLC, Ashland, OR, USA). The data were analyzed using GraphPad Prism 8 software (San Diego, CA, USA).

BTLA/HVEM interaction = assay: Cellular reporter assay, HVEM reporter cells (JE6.1-NF-κB::eGFP) stimulated with TCS-BTLA; assay type: cell-based, human; settings: 30 min preincubation, 24 h coculture, NF-κB::eGFP by flow cytometry, mean of four independent experiments in duplicate
Method: In the next step of the study, the inhibitory properties of the designed peptides were evaluated using previously described cell-based assays. The experiment utilized reporter cells expressing HVEM (JE6.1-NF-κB::eGFP) and T cell stimulator cells expressing BTLA (TCS-BTLA). Activation of the reporter cells by TCS followed a two-signal model. The first is generated through the interaction between the T cell receptor–cluster of differentiation 3 (TCR–CD3) complex on the surface of the reporter cells and a membrane-bound antihuman CD3 single-chain antibody fragment (mAb aCD3) expressed on the TCS cells. The second signal is provided by the binding of HVEM and BTLA, which in this assay results in a strong costimulatory signal via HVEM. Activation of the reporter cells leads to the expression of nuclear factor kappa light chain enhancer of activated B cells (NF-κB), which correlates with the level of enhanced green fluorescent protein (eGFP), measured by flow cytometry. In the absence of peptides, NF-κB expression is normalized to 100%. Disruption of the BTLA/HVEM interaction by peptides results in a concentration-dependent decrease in NF-κB levels. In this study, HVEM-expressing reporter cells were stimulated with BTLA-expressing TCS cells in the presence or absence of tested peptides at three different concentrations.
as §1

CC[C@@H]1NC(=O)[C@@H](NC(=O)[C@H](CCC(N)=O)NC(=O)[C@H](Cc2ccc(O)cc2)NC(C)=O)CSSC[C@@H](C(=O)N[C@@H](Cc2c[nH]cn2)C(=O)N[C@@H](Cc2ccccc2)C(=O)N[C@@H](Cc2ccccc2)C(N)=O)NC(=O)[C@H](CCC(N)=O)NC(=O)[C@H](CC(C)C)NC(=O)[C@H](CCCNC(=N)N)NC(=O)[C@H]([C@@H](C)CC)NC(=O)CNC(=O)[C@H](CO)NC(=O)[C@H](CCCCN)NC(=O)[C@H](CCC(N)=O)NC(=O)[C@H](CO)NC(=O)[C@H](CCCNC(=N)N)NC(=O)[C@H](C)NC1=O [A5, CD160(110–128) ^(C113X,G125C)] (HELM PEPTIDE1{[ac].Y.Q.C.[Abu].A.R.S.Q.K.S.G.I.R.L.Q.C.H.F.F.[am]}$PEPTIDE1,PEPTIDE1,4:R3-17:R3$$$V2.0)
Inhibition of NF-κB activation, HVEM/LIGHT cell-based assay, 16.67 μM (HVEM/LIGHT interaction; peptide 16.67 μM): 13% | Inhibition of NF-κB activation, HVEM/LIGHT cell-based assay, 50 μM (HVEM/LIGHT interaction; peptide 50 μM): 34% | Inhibition of NF-κB activation, HVEM/LIGHT cell-based assay, 150 μM (HVEM/LIGHT interaction; peptide 150 μM): 72% | Inhibition - Cellular assay 16.67 µM (BTLA/HVEM interaction; peptide 16.67 μM): ~14% and 14.03% | Inhibition - Cellular assay 50 µM (BTLA/HVEM interaction; peptide 50 μM): 59.04% | Inhibition - Cellular assay 150 µM (BTLA/HVEM interaction; peptide 150 μM): 80.42%
